From publication doi:10.1101/2021.06.01.446583v1 (biorxiv, 2021)

Columns and labels:
[1] = tested on: Fp231; test: CNP release at […] nm, Michaelis-Menten non-linear fit; type: biochemical, uncultured Paraglaciecola sp.; details: 0.1-4 mM substrate, 2 nM enzyme
[2] = tested on: Fp231; test: fucose release by HPAEC-PAD, Michaelis-Menten non-linear fit; type: biochemical, uncultured Paraglaciecola sp.; details: 0.1-4 mM substrate, 2 nM enzyme

In the case of C[C@@H]1O[C@@H](Oc2ccc([N+](=O)[O-])cc2Cl)[C@@H](O)[C@H](O)[C@@H]1O [CNP-Fuc, 2-chloro-4-nitrophenyl-α-L-fucopyranoside], the Km [1] is reported as 140 ± 10 µM.

For CC(=O)N[C@H]1C(O)O[C@H](CO)[C@@H](O[C@@H]2O[C@@H](C)[C@@H](O)[C@@H](O)[C@@H]2O)[C@@H]1O (stereo partly drawn) [Fuc(α1,4)GlcNAc], the Km [2] was 660 ± 50 µM.
